# Results published in PMC7756341, “Liposomal FRET Assay Identifies Potent Drug‐Like Inhibitors of the Ceramide Transport Protein (CERT)” (Chemistry (Weinheim an Der Bergstrasse, Germany), 2020).
# Tested on: HeLa cells
# Experiment: Cellular localization of BODIPY-ceramide by confocal microscopy
# Type: cell-based
# Conditions: 10 µM inhibitor, 2 h
# Description: 5.1 Cellular Localization of BODIPY-Ceramide
# HeLa cells were seeded in 8 well chamber slides (ibidi µ-Slide 8 Well) in RPMI 1640 medium supplemented with 10% (v/v) heat‐inactivated FCS, 1 mM sodium pyruvate and 2 mM L-glutamine at 37 °C and 5% (v/v) CO2 in a humidified incubator. The day after, cells were incubated with inhibitors for 2 h at a concentration of 10 µM or left untreated by replacing the medium with fresh medium supplemented with the respective inhibitors. After 2 h of incubation, BODIPY FL C5-ceramide (Thermo Fisher) was added to a final concentration of 0,25 µM and imaging was immediately done using an LSM 780 laser scanning confocal microscope (Carl Zeiss). No additional wash steps were performed. After 1 h of incubation, DNA was counterstained using Hoechst 33342. For quantification of BODIPY-Ceramide trafficking, cells were transfected with pECFP-GalT the day before inhibitor incubation for the expression of an eCFP fusion of the human galactosyltransferase (GalT; amino acids 1-60), which localizes at the Golgi apparatus. After incubation with the respective inhibitors (see above), cells were imaged at 30 min post addition of BODIPY FL C5-ceramide. Mean BODIPY intensities of regions of interest surrounding eCFP-GalT-positive Golgi stacks were measured (40 cells per biological replicate, 4 biological replicates in total) using ImageJ software (Rasband, W.S., ImageJ, U. S. National Institutes of Health, Bethesda, Maryland, USA, https://imagej.nih.gov/ij/, 1997-2018) and divided by the total BODIPY intensity detected in the field of view. Quantification (Fig 10B) is expressed as normalized intensity ratio (GA/total).
# Figure S10. A Uptake of BODIPY FL C5-ceramide to HeLa cells assessed by normalized fluorescence intensity B Distribution of BODIPY FL C5-ceramide by normalized fluorescence […]
# (1 picture or pasted object on this page, not shown here)
# Figure S11. BODIPY-Ceramide trafficking. Confocal images showing distribution of BODIPY FL C5-ceramide (green) and Golgi apparatus costaining (eCFP-GalT; blue) in HeLa cells pretreated with 10 µM of respective inhibitors or left untreated. Figures show representative images (n = 4 biological replicates with 40 cells per biological replicate); scale bars, 10 µm.
row,SMILES,effect on intracellular distribution of BODIPY-Cer
1,"Cc1cc(C2=NOC(c3cc(Cl)cc(Cl)c3)(C(F)(F)F)C2)ccc1C(=O)NCC(=O)NCC(F)(F)F (stereo not shown) [20D5, Fluralaner]",significantly influenced
2,"CCCC(=O)OCOC(=O)C1=C(C)NC(C)=C(C(=O)OC)C1c1cccc(Cl)c1Cl (stereo not shown) [6B11, Clevidipine butyrate]",only minor effects
3,"CC1=NN(c2ccc(C)c(C)c2)C(=O)/C1=N\Nc1cccc(-c2cccc(C(=O)O)c2)c1O [17C9, Eltrombopag]",only minor effects
4,"O=C(NC1CCN(CCCCC2(C(=O)NCC(F)(F)F)c3ccccc3-c3ccccc32)CC1)c1ccccc1-c1ccc(C(F)(F)F)cc1 [8E8, lomitapide]",significantly influenced
